Test results from US9051418B2, “Glucose-PEG conjugates for reducing glucose transport into a cell” (Agency for Science, Technology and Research, priority 2008, dated 2015).
Entries after “also recorded” stand apart in the source; their conditions may differ.

Key:
[1] = system: SkBr3 (human breast cancer) cell line; conditions: SkBr3, concentration of 4 mM; cited from earlier work
tumor = conditions: animal studies, supplemental 2-DG; cited from earlier work
MCF-7 cells [2] = assay: MTT cell viability assay, MCF-7 cells cultured 7 days with modified glucose; conditions: MCF-7, different concentrations
Description: MCF-7 cells were seeded onto 96-well plates at least 24 h prior to the experiment. […] MTT assay was performed to assess the cell viability. […] Cell viability was normalized with that of the control cells. […] The cells were treated as described in FIG. 3, followed by the MTT assay. […] MTT assay was carried out to monitor the viability of the cells. Values obtained for the cells without any treatments were kept as 100%. Different cancer cell lines, MCF-7 (breast cancer), H1299 (lung cancer), HepG2 (liver cancer), DU145 (prostate cancer), Caco2 (colon cancer) and AGS (gastric cancer) were obtained from American Type Culture Collection (ATCC). Normal breast epithelial cell line (MCF-10A) was used for comparison. The cells were maintained in the growth medium as described by ATCC. Approximately 10,000 cells were seeded onto a 96-well plate. Modified glucose compounds were added to the cells after 24 h of seeding. The cells were further cultured in the presence of the modified glucose compounds for up to 7 days. The medium was changed everyday along with the specified concentration of modified glucose. […] MTT assay was performed using the TACS™ MTT cell proliferation assay kit (Trevigen Inc, Md., USA). Briefly, after treatment of cells, 10 μl of MTT reagent was added and incubated at 37° C. for 4 h. […] The absorbance was measured in a standard plate reader at 570 nm.

GLUT1 = molecular target: T1, GLUT1 (Homo sapiens, UniProt P11166); assay: Glucose competition binding assay with GPB fluorescence; conditions: MCF-7, 200 μM GPB, glucose 10-40 mM, 30 min, 37° C.
T1 construct: host or cells: MCF-7 human breast cancer cells
T1 sequence (P11166 1-492): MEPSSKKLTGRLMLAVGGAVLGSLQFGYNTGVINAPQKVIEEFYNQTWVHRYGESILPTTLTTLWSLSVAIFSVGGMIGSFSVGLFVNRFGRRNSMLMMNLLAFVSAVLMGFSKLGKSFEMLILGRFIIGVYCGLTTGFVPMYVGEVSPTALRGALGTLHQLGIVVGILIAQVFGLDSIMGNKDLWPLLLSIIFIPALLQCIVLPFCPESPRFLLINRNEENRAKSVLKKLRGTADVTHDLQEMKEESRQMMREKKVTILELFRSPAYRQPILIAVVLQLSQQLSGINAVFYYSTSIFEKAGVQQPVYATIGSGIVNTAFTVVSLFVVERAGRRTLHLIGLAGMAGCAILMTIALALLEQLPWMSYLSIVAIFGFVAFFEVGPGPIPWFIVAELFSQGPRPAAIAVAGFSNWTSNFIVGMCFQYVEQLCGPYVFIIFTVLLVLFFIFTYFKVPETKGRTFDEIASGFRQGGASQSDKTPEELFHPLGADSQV
Description: FIG. 6: Competition assay. […] The cells were incubated for 30 min at 37° C. The cells were washed with PBS, and the total intensity was measured using a plate reader.
FIG. 10: Binding of GBP to GLUT1. […] After 30 minutes the fluorescence intensity was measured using a plate reader.
The medium was removed and the cells were washed briefly with PBS twice. The fluorescence intensity was measured with an excitation of 488 nm and an emission of 522 nm. The fluorescence intensity was normalized by that of the control cells.
A glucose competition assay was carried out to confirm that the modified glucose-PEG is binding to the GLUT1 receptors. Increasing concentrations of un-modified glucose were used. […] After 30 minutes the fluorescence intensity was measured using a plate reader.

MCF-7 cells [3] = assay: Fluorescence imaging of cells labeled with GPB; type: cell-based, human; conditions: MCF-7, live fluorescence imaging after incubation and PBS wash
Description: They were washed with PBS before fluorescence imaging. Scale bar=500 μm. The MCF-7 cells were seeded on a 6-well plate at least 24 h prior to imaging. […] The cells were washed with PBS (without calcium and magnesium) thrice. Live imaging was performed with fluorescence microscopy. Metamorph (Molecular Devices, USA) and Image J (freeware from NIH, USA) were used for image capturing and processing.

[4] = system: different cancer cell lines; conditions: 200 μM, MTT, Table 1
Description: MTT assay was carried out to monitor the viability of the cells. Values obtained for the cells without any treatments were kept as 100%.
Different cancer cell lines, MCF-7 (breast cancer), H1299 (lung cancer), HepG2 (liver cancer), DU145 (prostate cancer), Caco2 (colon cancer) and AGS (gastric cancer) were obtained from American Type Culture Collection (ATCC). Normal breast epithelial cell line (MCF-10A) was used for comparison. The cells were maintained in the growth medium as described by ATCC. Approximately 10,000 cells were seeded onto a 96-well plate. Modified glucose compounds were added to the cells after 24 h of seeding. The cells were further cultured in the presence of the modified glucose compounds for up to 7 days. The medium was changed everyday along with the specified concentration of modified glucose.
MTT assay was performed using the TACS™ MTT cell proliferation assay kit (Trevigen Inc, Md., USA). Briefly, after treatment of cells, 10 μl of MTT reagent was added and incubated at 37° C. for 4 h. The cells were lysed using detergent for 4 h at room temperature. The absorbance was measured in a standard plate reader at 570 nm.

H1299 = conditions: H1299, 200 μM, 3 days
Description: Human lung cancer cells (H1299) were treated for 3 days with 200 μM of modified glucose (GBrP). Control cells were prepared without treatment. Total RNA was extracted from the cells and reverse transcribed. A PCR array containing primers to identify the apoptotic pathway was used to identify the apoptosis pathway between control and treated cells in lung cancer cells.
Gene expression analysis was carried out to understand the apoptosis pathway during the modified glucose mediated cell death.

DU145 = conditions: DU145, 200 μM, 3 days

O=CC[C@@H](O)[C@H](O)[C@H](O)CO [2-DG, 2-deoxyglucose]
apoptotic cells [1]: 50% | tumor growth (tumor): growth of the tumor was inhibited

Glucose-PEG-BODIPY [GPB]
dose-dependent effect on cell viability (MCF-7 cells [2]): gradual dose-dependent decrease in the cell viability | competition of un-modified glucose with GPB binding (fluorescence intensity) (GLUT1): glucose competed with the GPB in binding to the GLUTs; also recorded: intensity of the fluorescence decreases with the increase in un-modified glucose | localization of fluorescence in cells (MCF-7 cells [3]): localized on the plasma membrane of the cells

glucose-conjugated branched PEG [GBrP]
inhibition of viability of various different cancer cell lines [4]: significantly inhibit the viability | apoptosis pathway gene expression, treated vs control (H1299): AKT1 and ABL1 were down regulated while APAF1 and TP53BP were upregulated | apoptosis pathway gene expression, treated vs control (DU145): AKT1 and ABL1 were down regulated while APAF1 and TP53BP were upregulated
